Test results from paper PMC11788587, “Validating Low‐Dose Iohexol as a Marker for Glomerular Filtration Rate by In Vitro and In Vivo Studies” (Clinical and Translational Science, 2025).

Experiments:
hOAT3 = target: T1, hOAT3 (Homo sapiens, UniProt Q8TCC7); experiment: Substrate assessment: iohexol uptake in 293 cells expressing hOAT3 vs control; type: in vitro ADME; settings: 10 μM iohexol, median (95% CI)
T1 construct: expressed in transfected cells; host or cells: HEK-293 (293) cells, pEBTetD plasmid, doxycycline-induced
T1 sequence (Q8TCC7 1-542): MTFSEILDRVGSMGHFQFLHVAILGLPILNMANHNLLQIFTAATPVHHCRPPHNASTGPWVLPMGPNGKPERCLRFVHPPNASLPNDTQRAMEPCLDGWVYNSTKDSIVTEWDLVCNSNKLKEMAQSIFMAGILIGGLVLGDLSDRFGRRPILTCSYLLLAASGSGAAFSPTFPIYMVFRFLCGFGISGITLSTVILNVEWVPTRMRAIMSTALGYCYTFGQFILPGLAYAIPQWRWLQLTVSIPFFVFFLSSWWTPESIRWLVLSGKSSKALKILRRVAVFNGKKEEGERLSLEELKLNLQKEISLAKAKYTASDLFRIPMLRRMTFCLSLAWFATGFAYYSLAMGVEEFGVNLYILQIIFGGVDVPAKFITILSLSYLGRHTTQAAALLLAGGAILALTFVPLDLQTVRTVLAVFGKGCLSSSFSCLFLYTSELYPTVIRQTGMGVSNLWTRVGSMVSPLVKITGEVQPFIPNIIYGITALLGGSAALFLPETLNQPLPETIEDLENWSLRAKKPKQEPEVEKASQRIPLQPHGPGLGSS
Excerpt: (§1) We characterized the inhibitory potential of iohexol on major drug transporters recommended by regulatory agencies, which were previously assessed in a clinical transporter phenotyping cocktail study. These transporters include hOAT1, hOAT3, hOCT1, hOCT2, hMATE1, hMATE2K, human organic anion transporter polypeptides (hOATP)1B1, hOATP1B3, and human multidrug resistance protein (hMDR)1. Additionally, we investigated whether iohexol is a substrate for any of the renal transporters among these, including hOAT1/3, hOCT1/2, and hMATE1/2K. Cell‐based uptake assays were used to assess the activities of hOAT1/3, hOCT1/2, hMATE1/2K, and hOATP1B1/1B3. Inside‐out membrane vesicle uptake assays were used to evaluate the activity of hMDR1.
(§2) For substrate assessments, iohexol was incubated with stably transfected HEK‐293 cells expressing one of the following transporters: hOAT1, hOAT3, hOCT1, hOCT2, hMATE1, or hMATE2K, as well as with control cells lacking transporter expression. Stably transfected cell lines containing pEBTetD plasmids with wild‐type human transporter cDNAs were generated as previously described. Transporter expression was induced by adding 1 μg/mL doxycycline to the growth medium for at least 20 h. Iohexol would be considered a substrate for these transporters if: (1) the ratio of iohexol uptake in cells expressing the transporter to that in control cells was ≥ 2, and (2) a known inhibitor of the transporter reduced iohexol uptake to ≤ 50% at concentrations ≥ 10 times its inhibition constant or half‐maximal inhibitory concentration.
(§3) Uptake assays were performed using stably transfected 293 cells, with or without the expression of one of the following transporters: hOAT1, hOAT3, hOCT1, hOCT2, hMATE1, or hMATE2K, as previously described.^1
(§4) For the substrate assessment, cells were incubated with 10 µM iohexol for 10 minutes and 30 minutes for each transporter. Inhibition assays were performed using specific standard substrates for each transporter: 10 µM para-aminohippuric acid (PAH) for hOAT1, 3 µM estrone-3-sulfate (E3S) for hOAT3, 50 µM metformin for hOCT1, 5 µM metformin for hOCT2, and 3 µM 1-methyl-4-phenylpyridinium (MPP+) for hMATE1 and hMATE2K. […]
(§5) R version 4.2.1 (R Foundation for Statistical Computing, Vienna, Austria) was used for statistical evaluations and data visualization. The data analysis approach for the in vitro study was detailed by Hsin CH et al..^1 In brief, for transport assays, the initial uptake rate was calculated by normalizing the substrate concentration to both the protein concentration and the incubation time for each dish or well. The transporter-mediated uptake rate (net uptake) was determined by performing an element-wise subtraction of uptake rates from different conditions. […]

hOCT2 = target: T2, hOCT2 (Homo sapiens, UniProt O15244); experiment: Substrate assessment: iohexol uptake in 293 cells expressing hOCT2 vs control; type: in vitro ADME; settings: 10 μM iohexol, median (95% CI)
T2 construct: expressed in transfected cells; host or cells: HEK-293 (293) cells, pEBTetD plasmid, doxycycline-induced
T2 sequence (O15244 1-555): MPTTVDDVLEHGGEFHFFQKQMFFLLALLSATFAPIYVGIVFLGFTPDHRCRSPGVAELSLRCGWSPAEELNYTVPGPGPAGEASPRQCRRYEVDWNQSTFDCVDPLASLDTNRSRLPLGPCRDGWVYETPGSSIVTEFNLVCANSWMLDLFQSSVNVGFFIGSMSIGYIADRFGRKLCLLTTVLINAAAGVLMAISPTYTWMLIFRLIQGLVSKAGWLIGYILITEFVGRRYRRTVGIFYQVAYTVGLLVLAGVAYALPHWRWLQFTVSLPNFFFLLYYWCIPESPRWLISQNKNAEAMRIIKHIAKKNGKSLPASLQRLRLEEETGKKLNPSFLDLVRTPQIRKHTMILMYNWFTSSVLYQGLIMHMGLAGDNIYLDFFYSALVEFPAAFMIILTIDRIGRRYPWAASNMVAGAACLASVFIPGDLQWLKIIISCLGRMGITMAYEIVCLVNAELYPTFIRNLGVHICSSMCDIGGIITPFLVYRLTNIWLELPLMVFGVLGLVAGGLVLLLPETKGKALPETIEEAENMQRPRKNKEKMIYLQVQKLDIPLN
Excerpt: as §1, §2, §3, §4, §5

[1] = parameters: method as in PMID 27679715; settings: cited from earlier work

Which “Differences in intracellular accumulation (expression on minus off)” value (“Differences … (expression on minus off)” below) (hOAT3; 10 minutes) does the source give for `CC(=O)N(CC(O)CO)c1c(I)c(C(=O)NCC(O)CO)c(I)c(C(=O)NCC(O)CO)c1I` (stereo not drawn) [iohexol] here?
The value was 0.6 (0.1 to 2) pmol/mg protein.

And the “Uptake ratio (transporter-expressing vs non-expressing cells)” value (hOAT3; 10 minutes)?
The value was 1.1 (1 to 1.4).

And the “Differences … (expression on minus off)” value (hOAT3; 30 minutes)?
Its value is 0.89 (0.19 to 1.5) pmol/mg protein.

What about the “Uptake ratio (transporter-expressing vs non-expressing cells)” value (hOAT3; 30 minutes) of the same compound?
The value was 1.2 (1.1 to 1.3).

What about the “Differences … (expression on minus off)” value (hOCT2; 10 minutes) of the same compound?
Its value is 1.3 (0.007 to 2.6) pmol/mg protein.

And the “Uptake ratio (transporter-expressing vs non-expressing cells)” value (hOCT2; 10 minutes)?
Its value is 1.1 (1 to 1.2).

What about the “Differences … (expression on minus off)” value (hOCT2; 30 minutes) of the same compound?
Its value is 1.5 (-1.4 to 2.9) pmol/mg protein.

What about the “Uptake ratio (transporter-expressing vs non-expressing cells)” value (hOCT2; 30 minutes) of the same compound?
Its value is 1.1 (0.9 to 1.3).

What about the Plasma protein binding [1] of the same compound?
Its Plasma protein binding is 1.5%.
